Data from patent US12077503B2, “Substituted cyclic amides and their use as herbicides” (FMC CORPORATION, priority 2015, dated 2024).

Key:
Assay type in all cases: in vivo
[1] = tested on: barnyardgrass (Echinochloa crus-galli); experiment: Test G Pre-Emergence Protocol; settings: Echinochloa crus-galli, pre-emergence, 312 h, evaluated after 13 days
How it was run: (§1)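 Seeds were sown in standard soil and kept one day in a glasshouse (24/16° C day/night, 14 h light, 65% humidity), then sprayed with compound in acetone/water (50:50) containing 0.5% Tween 20 at 15.625, 62.5 or 250 g/ha. Damage was scored after 13 days (0 = none, 100 = total).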

corn (Zea mays) [2] = experiment: Test G Pre-Emergence Protocol; settings: Zea mays, pre-emergence, 312 h, evaluated after 13 days
How it was run: as §1

[3] = tested on: giant foxtail (Setaria faberi); experiment: Test G Pre-Emergence Protocol; settings: Setaria faberi, pre-emergence, 312 h, evaluated after 13 days
How it was run: as §1

[4] = tested on: ivy-leaved morning glory (Ipomoea hederacea); experiment: Test G Pre-Emergence Protocol; settings: Ipomoea, pre-emergence, 312 h, evaluated after 13 days
How it was run: as §1

[5] = tested on: redroot pigweed (Amaranthus retroflexus); experiment: Test G Pre-Emergence Protocol; settings: Amaranthus retroflexus, pre-emergence, 312 h, evaluated after 13 days
How it was run: as §1

[6] = tested on: velvetleaf (Abutilon theophrasti); experiment: Test G Pre-Emergence Protocol; settings: Abutilon theophrasti, pre-emergence, 312 h, evaluated after 13 days
How it was run: as §1

[7] = tested on: barnyardgrass (Echinochloa crus-galli); experiment: Test G Post-Emergence Protocol; settings: Echinochloa crus-galli, post-emergence, 312 h
How it was run: (§2)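 Foliar application was made 8 days after sowing, using an aqueous spray of the active in acetone/water (50:50) with 0.5% Tween 20, at doses of 15.625, 62.5 or 250 g/ha. Injury was assessed 13 days later, where 100 meant the plant was fully damaged.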

corn (Zea mays) [8] = experiment: Test G Post-Emergence Protocol; settings: Zea mays, post-emergence, 312 h
How it was run: as §2

[9] = tested on: giant foxtail (Setaria faberi); experiment: Test G Post-Emergence Protocol; settings: Setaria faberi, post-emergence, 312 h
How it was run: as §2

[10] = tested on: ivy-leaved morning glory (Ipomoea hederacea); experiment: Test G Post-Emergence Protocol; settings: Ipomoea, post-emergence, 312 h
How it was run: as §2

[11] = tested on: redroot pigweed (Amaranthus retroflexus); experiment: Test G Post-Emergence Protocol; settings: Amaranthus retroflexus, post-emergence, 312 h
How it was run: as §2

[12] = tested on: velvetleaf (Abutilon theophrasti); experiment: Test G Post-Emergence Protocol; settings: Abutilon theophrasti, post-emergence, 312 h
How it was run: as §2

## Cc1c(Cl)ncnc1NC(=O)[C@@H]1C(=O)N(C)C[C@H]1c1ccc(C(F)(F)F)cc1 (racemic) [Compound 1581]
[1]; 15.625 g ai/ha, read-out: Barnyard grass damage rating (100=total damage to plant; 0=no damage to plant)
  pest or weed control at 15.625 g/ha: 0%
[1]; 62.5 g ai/ha, 100=total damage to plant, 0=no damage to plant, read-out: plant damage rating, Barnyardgrass
  pest or weed control at 62.5 g/ha: 0%
[1]; 250 g ai/ha, read-out: Barnyardgrass damage rating (100=total damage to plant; 0=no damage to plant)
  pest or weed control at 250 g/ha: 0%
Corn (Zea mays) [2]; 15.625 g ai/ha, read-out: Corn damage rating (100=total damage to plant; 0=no damage to plant)
  plant injury at 15.625 g/ha: 0%
Corn (Zea mays) [2]; 62.5 g ai/ha, 100=total damage to plant, 0=no damage to plant, read-out: plant damage rating, Corn
  plant injury at 62.5 g/ha: 0%
Corn (Zea mays) [2]; 250 g ai/ha, read-out: Corn damage rating (100=total damage to plant; 0=no damage to plant)
  plant injury at 250 g/ha: 0%
[3]; 15.625 g ai/ha, read-out: Foxtail, Giant damage rating (100=total damage to plant; 0=no damage to plant)
  pest or weed control at 15.625 g/ha: 0%
[3]; 62.5 g ai/ha, 100=total damage to plant, 0=no damage to plant, read-out: plant damage rating, Foxtail, Giant
  pest or weed control at 62.5 g/ha: 0%
[3]; 250 g ai/ha, read-out: Foxtail, Giant damage rating (100=total damage to plant; 0=no damage to plant)
  pest or weed control at 250 g/ha: 0%
[4]; 15.625 g ai/ha, read-out: Morning-glory, Ivy-leaved damage rating (100=total damage to plant; 0=no damage to plant)
  pest or weed control at 15.625 g/ha: 0%
[4]; 62.5 g ai/ha, 100=total damage to plant, 0=no damage to plant, read-out: plant damage rating, Morningglory, Ivy-leaved
  pest or weed control at 62.5 g/ha: 0%
[4]; 250 g ai/ha, read-out: Morningglory, Ivy-leaved damage rating (100=total damage to plant; 0=no damage to plant)
  pest or weed control at 250 g/ha: 0%
[5]; 15.625 g ai/ha, read-out: Pigweed, Redroot damage rating (100=total damage to plant; 0=no damage to plant)
  pest or weed control at 15.625 g/ha: 0%
[5]; 62.5 g ai/ha, 100=total damage to plant, 0=no damage to plant, read-out: plant damage rating, Pigweed, Redroot
  pest or weed control at 62.5 g/ha: 0%
[5]; 250 g ai/ha, read-out: Pigweed, Redroot damage rating (100=total damage to plant; 0=no damage to plant)
  pest or weed control at 250 g/ha: 0%
[6]; 15.625 g ai/ha, read-out: Velvetleaf damage rating (100=total damage to plant; 0=no damage to plant)
  pest or weed control at 15.625 g/ha: 0%
[6]; 62.5 g ai/ha, 100=total damage to plant, 0=no damage to plant, read-out: plant damage rating, Velvetleaf
  pest or weed control at 62.5 g/ha: 0%
[6]; 250 g ai/ha, read-out: Velvetleaf damage rating (100=total damage to plant; 0=no damage to plant)
  pest or weed control at 250 g/ha: 0%
[7]; 15.625 g ai/ha, evaluated after 13 days (100=total damage to plant; 0=no damage to plant), read-out: Barnyardgrass damage rating
  pest or weed control at 15.625 g/ha: 0%
[7]; 62.5 g ai/ha, evaluated after 13 days, read-out: Barnyardgrass damage rating (100=total damage to plant; 0=no damage to plant)
  pest or weed control at 62.5 g/ha: 0%
[7]; 250 g ai/ha, evaluated after 13 days, read-out: damage to plant, Barnyardgrass (100=total damage to plant; 0=no damage to plant)
  pest or weed control at 250 g/ha: 10%
Corn (Zea mays) [8]; 15.625 g ai/ha, evaluated after 13 days (100=total damage to plant; 0=no damage to plant), read-out: Corn damage rating
  plant injury at 15.625 g/ha: 0%
Corn (Zea mays) [8]; 62.5 g ai/ha, evaluated after 13 days, read-out: Corn damage rating (100=total damage to plant; 0=no damage to plant)
  plant injury at 62.5 g/ha: 0%
Corn (Zea mays) [8]; 250 g ai/ha, evaluated after 13 days, read-out: damage to plant, Corn (100=total damage to plant; 0=no damage to plant)
  plant injury at 250 g/ha: 0%
[9]; 15.625 g ai/ha, evaluated after 13 days (100=total damage to plant; 0=no damage to plant), read-out: Foxtail, Giant damage rating
  pest or weed control at 15.625 g/ha: 0%
[9]; 62.5 g ai/ha, evaluated after 13 days, read-out: Foxtail, Giant damage rating (100=total damage to plant; 0=no damage to plant)
  pest or weed control at 62.5 g/ha: 0%
[9]; 250 g ai/ha, evaluated after 13 days, read-out: damage to plant, Foxtail, Giant (100=total damage to plant; 0=no damage to plant)
  pest or weed control at 250 g/ha: 0%
[10]; 15.625 g ai/ha, evaluated after 13 days (100=total damage to plant; 0=no damage to plant), read-out: Morningglory, Ivy-leaved damage rating
  pest or weed control at 15.625 g/ha: 0%
[10]; 62.5 g ai/ha, evaluated after 13 days, read-out: Morningglory, Ivy-leaved damage rating (100=total damage to plant; 0=no damage to plant)
  pest or weed control at 62.5 g/ha: 0%
[10]; 250 g ai/ha, evaluated after 13 days, read-out: damage to plant, Morningglory, Ivy-leaved (100=total damage to plant; 0=no damage to plant)
  pest or weed control at 250 g/ha: 0%
[11]; 15.625 g ai/ha, evaluated after 13 days (100=total damage to plant; 0=no damage to plant), read-out: Pigweed, Redroot damage rating
  pest or weed control at 15.625 g/ha: 0%
[11]; 62.5 g ai/ha, evaluated after 13 days, read-out: Pigweed, Redroot damage rating (100=total damage to plant; 0=no damage to plant)
  pest or weed control at 62.5 g/ha: 0%
[11]; 250 g ai/ha, evaluated after 13 days, read-out: damage to plant, Pigweed, Redroot (100=total damage to plant; 0=no damage to plant)
  pest or weed control at 250 g/ha: 0%
[12]; 15.625 g ai/ha, evaluated after 13 days (100=total damage to plant; 0=no damage to plant), read-out: Velvetleaf damage rating
  pest or weed control at 15.625 g/ha: 0%
[12]; 62.5 g ai/ha, evaluated after 13 days, read-out: Velvetleaf damage rating (100=total damage to plant; 0=no damage to plant)
  pest or weed control at 62.5 g/ha: 0%
[12]; 250 g ai/ha, evaluated after 13 days, read-out: damage to plant, Velvetleaf (100=total damage to plant; 0=no damage to plant)
  pest or weed control at 250 g/ha: 0%
